≈ marks a conversion by molar mass, not a printed value. Calls of active or inactive are those of the source. No cut-off for these calls is given here.
Experiments:
[1] = Selectivity ratio of IC50 for cytotoxicity against human HBE cells to MIC80 for antifungal activity against wild-type Candida albicans SC5314; format: toxicity, cell-based
Candida albicans [2] = test: Antifungal activity against wild-type Candida albicans SC5314 assessed as inhibition of fungal growth measured after 24 hrs by CLSI based microtiter plate analysis; format: functional
Candida albicans [3] = test: Antifungal activity against clinical isolate Candida albicans YEM13 overexpressing efflux pump MdrL assessed as inhibition of fungal growth measured after 24 hrs by CLSI based microtiter plate analysis; format: functional
Candida albicans [4] = test: Antifungal activity against clinical isolate Candida albicans YEM15 overexpressing efflux pump CdrL and Cdr2 assessed as inhibition of fungal growth measured after 24 hrs by CLSI based microtiter plate analysis; format: functional
Candida albicans [5] = test: Antifungal activity against clinical isolate Candida albicans SCMRRIR34MPG2A harbouring MRR1 mutation overexpressing efflux pump MdrL assessed as inhibition of fungal growth measured after 24 hrs by CLSI based microtiter plate analysis; format: functional
Candida albicans [6] = test: Antifungal activity against clinical isolate fluconazole-resistant Candida albicans DSY296 harbouring TAC1 mutation overexpressing efflux pump CdrL and Cdr2 assessed as inhibition of fungal growth measured after 24 hrs by CLSI based microtiter plate analysis; format: functional
Candida albicans [7] = test: Antifungal activity against clinical isolate fluconazole-resistant Candida albicans Gu5 harbouring TAC1 mutation overexpressing efflux pump CdrL and Cdr2 assessed as inhibition of fungal growth measured after 24 hrs by CLSI based microtiter plate analysis; format: functional
Candida albicans [8] = test: Antifungal activity against clinical isolate fluconazole-resistant Candida albicans CA632 assessed as inhibition of fungal growth measured after 24 hrs by CLSI based microtiter plate analysis; format: functional
[Candida] auris [9] = Antifungal activity against clinical isolate fluconazole-resistant Candida auris CBS12774 assessed as inhibition of fungal growth measured after 24 hrs by CLSI based microtiter plate analysis; format: functional; details: Candidozyma auris
Nakaseomyces glabratus = test: Antifungal activity against clinical isolate fluconazole-resistant Candida glabrata CG2 assessed as inhibition of fungal growth measured after 24 hrs by CLSI based microtiter plate analysis; format: functional
Candida tropicalis = test: Antifungal activity against clinical isolate fluconazole-resistant Candida tropicalis CT10 assessed as inhibition of fungal growth measured after 24 hrs by CLSI based microtiter plate analysis; format: functional
Candida albicans [10] = test: Antifungal activity against clinical isolate fluconazole-resistant Candida albicans Gu5 infected in BALB/c mouse assessed as reduction in kidney fungal infection at 6 mg/kg, ip administered on day 1 and day 3 post fungal infection measured after 7 days by periodic acid-schiff/hematoxylin and eosin staining based microscopic analysis; format: functional, organism-based; details: time 7.0 day
Candida albicans [11] = test: Antifungal activity against wild-type Candida albicans SC5314 assessed as decrease in viable count measured after 24 hrs by colony-counting based time-killing kinetics assay; format: functional, organism-based; details: dose 2-4 µg/ml
Candida albicans [12] = test: Antifungal activity against wild-type Candida albicans SC5314 assessed as decrease in viable count at 2 to 4 microg/ml by colony-counting based time-killing kinetics assay; format: functional, organism-based; details: dose 2-4 µg/ml, time 24.0 hrs, TDE = time-dependent effect
Candida albicans [13] = test: Antifungal activity against fluconazole-resistant clinical isolate Candida albicans Gu5 assessed as decrease in viable count at 2 to 4 microg/ml by colony-counting based time-killing kinetics assay; format: functional, organism-based; details: dose 2-4 µg/ml, time 24.0 hrs, TDE = time-dependent effect
[Candida] auris [14] = Antifungal activity against clinical isolate fluconazole-resistant Candida auris CBS12774 assessed as decrease in viable count measured after 24 hrs by colony-counting based time-killing kinetics assay; format: functional, organism-based; details: Candidozyma auris, dose 2-4 µg/ml
[Candida] auris [15] = Antifungal activity against clinical isolate fluconazole-resistant Candida auris CBS12774 assessed as decrease in viable count at 2 to 4 microg/ml by colony-counting based time-killing kinetics assay; format: functional, organism-based; details: Candidozyma auris, dose 2-4 µg/ml, time 24.0 hrs, TDE = time-dependent effect
[16] = Selectivity ratio of IC50 for cytotoxicity against human HBE cells to MIC80 for antifungal activity against clinical isolate fluconazole-resistant Candida glabrata CG2; format: toxicity, cell-based
[17] = Selectivity ratio of IC50 for cytotoxicity against human HBE cells to MIC80 for antifungal activity against clinical isolate Candida albicans YEM13 overexpressing efflux pump MdrL; format: toxicity, cell-based
[18] = Selectivity ratio of IC50 for cytotoxicity against human HBE cells to MIC80 for antifungal activity against clinical isolate Candida albicans YEM15 overexpressing efflux pump CdrL and Cdr2; format: toxicity, cell-based
[19] = Selectivity ratio of IC50 for cytotoxicity against human HBE cells to MIC80 for antifungal activity against clinical isolate Candida albicans SCUPC2R14MPG2A harbouring UPC2 mutation overexpressing […]; format: toxicity, cell-based
[20] = Selectivity ratio of IC50 for cytotoxicity against human HBE cells to MIC80 for antifungal activity against clinical isolate Candida albicans SCMRRIR34MPG2A harbouring MRR1 mutation overexpressing efflux pump MdrL; format: toxicity, cell-based
[21] = Selectivity ratio of IC50 for cytotoxicity against human HBE cells to MIC80 for antifungal activity against clinical isolate fluconazole-resistant Candida albicans DSY296 harbouring TAC1 mutation overexpressing efflux pump CdrL and Cdr2; format: toxicity, cell-based
[22] = Selectivity ratio of IC50 for cytotoxicity against human HBE cells to MIC80 for antifungal activity against clinical isolate fluconazole-resistant Candida albicans Gu5 harbouring TAC1 mutation overexpressing efflux pump CdrL and Cdr2; format: toxicity, cell-based
[23] = Selectivity ratio of IC50 for cytotoxicity against human HBE cells to MIC80 for antifungal activity against clinical isolate fluconazole-resistant Candida auris CBS12774; format: toxicity, cell-based
[24] = Selectivity ratio of IC50 for cytotoxicity against human HBE cells to MIC80 for antifungal activity against clinical isolate fluconazole-resistant Cryptococcus neoformans H99; format: toxicity, cell-based
[25] = Selectivity ratio of IC50 for cytotoxicity against human HBE cells to MIC80 for antifungal activity against clinical isolate fluconazole-resistant Candida tropicalis CT10; format: toxicity, cell-based
Candida albicans [26] = test: Inhibition of biofilm formation in wild-type Candida albicans SC5314 at 2 microg/ml measured after 24 hrs by alamar blue staining based colorimetric analysis; format: functional, organism-based; details: dose 2.0 µg/ml
Candida albicans [27] = test: Inhibition of biofilm formation in fluconazole-resistant clinical isolate Candida albicans Gu5 at 2 microg/ml measured after 24 hrs by alamar blue staining based colorimetric analysis; format: functional, organism-based; details: dose 2.0 µg/ml
[Candida] auris [28] = Inhibition of biofilm formation in clinical isolate fluconazole-resistant Candida auris CBS12774 at 2 microg/ml measured after 24 hrs by alamar blue staining based colorimetric analysis; format: functional, organism-based; details: Candidozyma auris, dose 2.0 µg/ml
Candida albicans [29] = test: Inhibition of biofilm formation in wild-type Candida albicans SC5314 at 8 microg/ml measured after 24 hrs by alamar blue staining based colorimetric analysis; format: functional
Candida albicans [30] = test: Inhibition of biofilm formation in fluconazole-resistant clinical isolate Candida albicans Gu5 at 8 microg/ml measured after 24 hrs by alamar blue staining based colorimetric analysis; format: functional
[Candida] auris [31] = Inhibition of biofilm formation in clinical isolate fluconazole-resistant Candida auris CBS12774 measured after 24 hrs by alamar blue staining based colorimetric analysis; format: functional, organism-based; details: Candidozyma auris, dose 4-32 µg/ml
[32] = Toxicity in BALB/c mouse infected with clinical isolate fluconazole-resistant Candida albicans Gu5 assessed as animal survival rate at 6 mg/kg, ip administered on day 1 and day 3 post fungal infection measured after 7 days; format: organism-based; details: in vivo, 168 h, time 7 day
Candida albicans [33] = test: Antifungal activity against clinical isolate fluconazole-resistant Candida albicans Gu5 infected in BALB/c mouse assessed as fold reduction in kidney fungal burden at 6 mg/kg, ip administered on day 1 and day 3 post fungal infection measured after 7 days; format: functional; details: time 7 day

C=C1C(=O)[C@@]2(C)CC[C@@H]3[C@@]1(CC[C@H]1[C@@]3(C)CCC[C@@]1(C)C(=O)OCCCOc1ccc(C(=N)N)cc1)C2
selectivity ratio [1]: 8
MIC (Candida albicans [2]): inactive
MIC80 (Candida albicans [2]; Candida albicans, SC5314, 24 h, read-out: MIC80): 1 µg/mL (≈ 1.97 µM)
MIC80 (Candida albicans [3]): 1 µg/mL (≈ 1.97 µM)
MIC80 (Candida albicans [4]): 1 µg/mL (≈ 1.97 µM)
MIC80 (Candida albicans [5]): 2 µg/mL (≈ 3.95 µM)
MIC80 (Candida albicans [6]): 2 µg/mL (≈ 3.95 µM)
MIC80 (Candida albicans [7]): 2 µg/mL (≈ 3.95 µM)
MIC80 (Candida albicans [8]): 1 µg/mL (≈ 1.97 µM)
MIC80 ([Candida] auris [9]): 2 µg/mL (≈ 3.95 µM)
MIC80 (Nakaseomyces glabratus): 2 µg/mL (≈ 3.95 µM)
MIC80 (Candida tropicalis): 2 µg/mL (≈ 3.95 µM)
Activity (Candida albicans [10]): Active
Activity (Candida albicans [11]): Dose-Dependent Effect
Activity (Candida albicans [12]): Tde
Activity (Candida albicans [13]): Tde
Activity ([Candida] auris [14]): Dose-Dependent Effect
Activity ([Candida] auris [15]): Tde
selectivity ratio [16]: 8
selectivity ratio [17]: 8
selectivity ratio [18]: 8
selectivity ratio [19]: 8
selectivity ratio [20]: 8
selectivity ratio [21]: 8
selectivity ratio [22]: 8
selectivity ratio [23]: 8
selectivity ratio [24]: 8
selectivity ratio [25]: 8
inhibition (Candida albicans [26]): Active
inhibition (Candida albicans [27]): Active
inhibition ([Candida] auris [28]): Active
inhibition at 8 µg/mL (Candida albicans [29]): ~80.2%
inhibition at 8 µg/mL (Candida albicans [30]): 81.5%
inhibition ([Candida] auris [31]): Dose-Dependent Effect
Survival [32]: 40%
fold change (FC) (Candida albicans [33]): ~50

Reference: ChEMBL document CHEMBL5365543, “Benzamidine Conjugation Converts Expelled Potential Active Agents into Antifungals against Drug-Resistant Fungi” (J Med Chem, 2023)
